Earlier results, collected in patent publication EP4729055A1, “TREATMENT OF DISORDERS USING SPHINGOSINE-1-PHOSPHATE RECEPTOR MODULATORS” (The Provost, Fellows, Foundation Scholars, & the other …, priority 2024, dated 2026).

CCCCCCCCc1ccc(CCC(N)(CO)CO)cc1 [fingolimod, 2-Amino-2-[2-(4-octylphenyl)ethyl]propane-1,3-diol]
log P: 5.5
